Test results as given in patent publication US9828375B2, “4-position substituted pyrazolopyrimidine derivative, and use thereof in drug preparation” (Guangxi Wuzhou Pharmaceuticals (Group) Co., Ltd., priority 2012, dated 2017).

What was measured:
[1] = target: FGFR2 (Homo sapiens, UniProt P21802); test: Kinase inhibition activity test, isotope labeling: FGFR2; assay type: biochemical; settings: test compound at a concentration of 10 μM; for inhibition at 10 µM: read-out: Activity inhibition rate FGFR2 (h)
FGFR2, sequence (P21802 22-821): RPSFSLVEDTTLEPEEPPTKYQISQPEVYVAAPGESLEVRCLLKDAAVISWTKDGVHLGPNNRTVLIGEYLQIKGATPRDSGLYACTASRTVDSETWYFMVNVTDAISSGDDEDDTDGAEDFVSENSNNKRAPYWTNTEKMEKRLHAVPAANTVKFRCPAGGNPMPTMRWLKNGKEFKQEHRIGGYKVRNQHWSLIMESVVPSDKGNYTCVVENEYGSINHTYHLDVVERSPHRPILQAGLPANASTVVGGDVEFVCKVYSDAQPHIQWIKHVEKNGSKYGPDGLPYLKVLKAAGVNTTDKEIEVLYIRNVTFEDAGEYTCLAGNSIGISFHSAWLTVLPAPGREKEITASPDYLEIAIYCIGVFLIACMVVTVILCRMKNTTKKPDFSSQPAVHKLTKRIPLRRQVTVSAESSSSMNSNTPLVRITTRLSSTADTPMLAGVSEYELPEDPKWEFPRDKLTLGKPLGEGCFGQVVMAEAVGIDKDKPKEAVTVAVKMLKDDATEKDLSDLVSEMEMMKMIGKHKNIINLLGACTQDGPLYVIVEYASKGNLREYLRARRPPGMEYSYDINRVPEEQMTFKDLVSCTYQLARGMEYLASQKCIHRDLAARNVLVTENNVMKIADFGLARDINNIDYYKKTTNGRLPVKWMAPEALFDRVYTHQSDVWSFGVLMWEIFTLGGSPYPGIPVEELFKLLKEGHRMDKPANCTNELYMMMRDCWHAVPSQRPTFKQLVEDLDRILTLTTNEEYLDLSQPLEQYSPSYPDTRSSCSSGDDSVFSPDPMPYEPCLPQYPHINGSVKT
Method: (§1) The purpose of this experiment was to test the inhibitory activity of the compound of the invention for in vitro kinase with the isotope labeling method (the γ phosphate group on ATP was labeled). In this experiment, the in vitro activity inhibition of such kinases as FLT3, VEGFR2, FLT1, FLT4, RET, c-RAF, B-RAF, c-KIT, PDGFα, PDGFβ, FGFR2, FGFR1, EphA2, EphB2, SRC, ABL, ALK and Met was tested respectively. Staurosporine was reference molecule (or referred to as positive control). The kinase inhibition activity of the test compound was expressed by half-inhibitory concentration (IC50) or the kinase activity inhibition rate of the test compound at a concentration of 10 μM. The IC50 value could be obtained by calculating the kinase activity inhibition rate of the test compound at different concentrations.
(§2) 20 mM 3-(N-morpholinyl)propanesulfonic acid (MOPS); 1 mM ethylenediaminetetraacetic acid (EDTA), 0.01% Brij 35 (Brij-35), 5% glycerol, 0.1% mercaptoethanol, 1 mg/mL bovine serum albumin (BSA), 10 mM manganous dichloride solution (MnCl2), 0.1 mg/mL glutamic acid/tyrosine (4:1) polypeptide (poly(Glu, Tyr)4:1), 50 μM EAIYAAPFAKKK (substrate of FLT3), 0.33 mg/mL myelin basic protein (substrate of VEGFR2), 250 μM KKKSPGEYVNIEFG (substrate of FLT1(h)), 500 μM GGEEEEYFELVKKKK (substrate of FLT4(h)), 250 μM KKKSPGEYVNIEFG (substrate of RET), 0.66 mg/mL myelin basic protein (substrate of C-RAF), 250 μM GGMEDIYFEFMGGKKK (substrate of c-Kit), 250 μM GGMEDIYFEFMGGKKK (substrate of PDGFα), 250 μM KKKSPGEYVNIEFG (substrate of FGFR1), […] GGEEEEYFELVKKKK (substrate of SRC), 50 μM EAIYAAPFAKKK (substrate of ABL), 250 μM KKKSPGEYVNIEFG (substrate of ALK), 250 μM KKKSPGEYVNIEFG (substrate of Met(h)), 10 mM magnesium acetate and γ-^33 P-ATP solution, stop buffer (3% phosphate buffer), washing buffer (75 mM phosphate solution), methanol, Filtermat A membrane, FLT3, VEGFR2, FLT3, VEGFR2, FLT1, FLT4, RET, c-RAF, B-RAF, c-KIT, PDGFRα, PDGFRβ, FGFR2, FGFR1, EphA2, EphB2, SRC, ABL, ALK, Met and other kinases, and the test compounds.
(§3) Buffers (8 mM MOPS with pH value of 7.0, 0.2 mM EDTA and 10 mM MnCl2), (5-10 mU) kinases to be tested (FLT3, VEGFR2, FLT1, FLT4, RET, c-RAF, B-RAF, c-KIT, PDGFRα, PDGFRβ, FGFR2, FGFR1, EphA2, EphB2, SRC, ABL, ALK and Met), substrates of kinases to be tested (refer to experimental materials), 10 mM magnesium acetate and γ-^33 P-ATP solution, and test compounds at different concentrations were added to a reaction tube orderly. […] Reaction was terminated with 5 μL 3% phosphate buffer finally, and 10 μL reaction solution was titrated to the Filtermat A membrane; solution was washed for 3 times with 75 mM phosphate solution with each time lasting 5 minutes, and then washed once with methanol. Finally, the Filtermat A membrane was dried, and scintillation counting was performed on the membrane, with scintillation count reflecting the phosphorylation degree of the substrates, so that the activity inhibition of kinase could be characterized.

[2] = target: c-KIT (Homo sapiens, UniProt P10721); test: Kinase inhibition activity test, isotope labeling: c-KIT; assay type: biochemical; settings: test compound at a concentration of 10 μM; for inhibition at 10 µM: read-out: Activity inhibition rate c-Kit (h)
c-KIT, sequence (P10721 26-976): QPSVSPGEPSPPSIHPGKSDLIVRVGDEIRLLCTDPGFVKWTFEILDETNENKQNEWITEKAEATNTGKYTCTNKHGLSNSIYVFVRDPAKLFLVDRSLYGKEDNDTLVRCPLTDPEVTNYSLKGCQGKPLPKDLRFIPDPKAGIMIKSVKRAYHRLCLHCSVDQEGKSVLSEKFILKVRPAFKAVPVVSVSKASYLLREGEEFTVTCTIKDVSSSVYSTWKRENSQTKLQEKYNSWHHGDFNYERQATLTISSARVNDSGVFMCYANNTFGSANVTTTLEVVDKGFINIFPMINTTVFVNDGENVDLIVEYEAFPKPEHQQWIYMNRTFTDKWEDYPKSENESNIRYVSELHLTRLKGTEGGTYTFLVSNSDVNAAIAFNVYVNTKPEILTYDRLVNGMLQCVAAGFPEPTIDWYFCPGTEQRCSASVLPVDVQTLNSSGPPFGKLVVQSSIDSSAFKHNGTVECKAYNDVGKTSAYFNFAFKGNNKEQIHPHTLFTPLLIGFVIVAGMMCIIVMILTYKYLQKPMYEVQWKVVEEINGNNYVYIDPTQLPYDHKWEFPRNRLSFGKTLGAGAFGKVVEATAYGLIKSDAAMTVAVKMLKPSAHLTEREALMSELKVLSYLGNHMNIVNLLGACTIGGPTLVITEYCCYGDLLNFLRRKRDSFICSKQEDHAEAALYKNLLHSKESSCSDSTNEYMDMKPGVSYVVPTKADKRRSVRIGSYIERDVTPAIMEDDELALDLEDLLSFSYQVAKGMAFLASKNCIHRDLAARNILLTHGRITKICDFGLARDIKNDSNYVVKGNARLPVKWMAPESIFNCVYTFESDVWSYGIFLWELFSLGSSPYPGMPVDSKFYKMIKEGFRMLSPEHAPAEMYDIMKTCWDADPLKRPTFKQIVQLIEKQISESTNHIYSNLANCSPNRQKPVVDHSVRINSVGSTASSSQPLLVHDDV
Method: as §1, §2, §3

[3] = system: human malignant melanoma cell line A875; test: In vitro tumor cell proliferation inhibition (MTT): A875; assay type: cell-based
Text: The purpose of the experiment was to test the inhibition activity of the compounds of the invention for in vitro human tumor cell proliferation by the methyl thiazolyl tetrazolium (MTT) colorimetry.
Main reagents: RPMI-1640, fetal bovine serum, pancreatin, etc. were purchased from Gibco BRL Company (Invitrogen Corporation, USA) and IMDM medium that was purchased from American Type Culture Collection (ATCC). Methyl thiazolyl tetrazolium (MTT) and dimethyl sulfoxide (DMSO) were products from Sigma Company (USA). Pyrazolopyrimidine derivatives were composed by the inventor. During in vitro experiment, 100% DMSO was prepared into 10 mM storage solution, the solution was stored in a refrigerator at −20° C. for future use, and was diluted to the required concentration with complete culture solution before use.
Cell line and culture: Human leukemia cell line MV4-11, Jurkat, K562, human thyrophyma cell line TT, human gastric carcinoma cell line MKN-45, human malignant melanoma cell lines A375 and A875, human pancreatic carcinoma cell line panc-1, human cervical carcinoma cell line HELA, human colorectal carcinoma cell line HCT116, etc. were purchased from American type culture collection and were preserved by this laboratory. All leukemia cell lines (except MV4-11), gastric carcinoma cell lines and thyrophyma cell lines were cultured in RPMI-1640 complete medium containing 10% fetal bovine serum, 100 U/mL penicillin and 100 μg/mL streptomycin at 37° C. in 5% CO2. The remaining cell lines were cultured in DMEM complete medium containing 10% fetal bovine serum (containing 20% MV4-11 cell), 100 U/mL penicillin and 100 µg/mL streptomycin at 37° C. in 5% CO2.
Cell suspension with cell concentration of 1-2×10^4/mL was adjusted with the complete cell medium and inoculated in a 96-well plate, with each well filled with 200 μl cell suspension that was cultured overnight. On the next day, supernatant was sucked and abandoned (supernatant was sucked upon centrifugation of suspension cells), and then cells were processed with test compounds at gradient concentrations respectively. Meanwhile, a negative control group free from drug and a solvent control group with equal volume were set, and the DMSO concentration was 0.1%. Each dose group was provided with three wells and cultured at 37° C. in 5% CO2. After 72 hours, 20 μl 5 mg/mL MTT reagent was added to each well, and cultured for another 2 to 4 hours, the supernatant was abandoned; 150 μL DMSO was added to each well again, vibrated and mixed evenly for 15 minutes; the absorbance (A) values (proportional to living cell amount) were determined with a microplate reader (λ=570 nm) and averaged. […] Experiment was repeated for 3 times at least. Experimental data were expressed with means, data statistics were tested by t, and P<0.05 means that difference has a statistical significance. The cell proliferation inhibition effects of all compounds as follows are expressed by IC50 or inhibition rate.

Compound	Activity inhibition rate FGFR2 (h) [1]	Activity inhibition rate c-Kit (h) [2]	IC50 ([3]; 72 hours)	inhibition at 10 µM [1]	inhibition at 10 µM [2]	IC50 ([3]; Homo sapiens, A875, 72 hours)
O=C(Nc1ccc(C(F)(F)F)cc1)Nc1ccc(Oc2ncnc3[nH]ncc23)c(F)c1 [4a-9, 1-(4-((1H-pyrazolopyrimidine-4-yl)oxy)-3-fluorophenyl)-3-(4-(trifluoromethyl)phenyl)urea]	18%	29%	< 50 µM	–	–	–
COc1cccc(NC(=O)Nc2ccc(Nc3ncnc4[nH]ncc34)cc2)c1 [4b-3]	–	–	–	45%	> 30%	< 50 µM
Cc1cc(C)c(NC(=O)Nc2ccc(NC(=O)N3C=NC=C4NNC=C43)cc2)c(C)c1 [4b-7, 1-(4-(1H-pyrazolopyrimidine-4-amido)phenyl)-3-(2,4,6-trimethylphenyl)urea]	–	–	–	69%	> 30%	< 50 µM
1-(4-((1H-pyrazolopyrimidine-4-yl)oxy)phenyl)-3-(methylcyclohexyl)urea [4a-20]	19%	98%	< 50 µM	–	–	–
O=C(Nc1ccc(Oc2ncnc3[nH]ncc23)cc1)Nc1cc(C(F)(F)F)cc(C(F)(F)F)c1 [4a-12, 1-(4-((1H-pyrazolopyrimidine-4-yl)oxy)phenyl)-3-(3,5-bis(trifluoromethyl)phenyl)urea]	71%	58%	< 50 µM	–	–	–
C[C@@H](NC(=O)Nc1ccc(Oc2ncnc3[nH]ncc23)cc1)c1ccccc1 [4a-19, (R)-1-(4-((1H-pyrazolopyrimidine-4-yl)oxy)phenyl)-3-(1-phenethyl)urea]	17%	93%	< 50 µM	–	–	–
CC(C)(C)c1cc(NC(=O)Nc2ccc(Oc3ncnc4[nH]ncc34)cc2)n(-c2ccccc2)n1 [4a-24]	>50%	>90%	4.27 µM	–	–	–
O=C(Nc1cccc(Nc2ncnc3[nH]ncc23)c1)Nc1ccc(F)c(Cl)c1 [4b-1]	–	–	–	22%	> 30%	< 50 µM
CC(C)(C)c1cc(NC(=O)Nc2ccc(Oc3ncnc4[nH]ncc34)cc2)no1 [4a-26]	–	–	–	> 50%	> 90%	3 to 10 µM
